This is an account of results in patent publication US20240254119A1 (THIRD HARMONIC BIO, INC., priority 2022, published 2024).

The structures appear in SMILES notation.

The test has as its target T1, wtKIT (Homo sapiens, UniProt P10721).
T1 construct: 1888289AM in the reaction mixtures
Description: HTRF biochemical assay, wtKIT (phosphorylation of a peptide substrate). The following applies: Table 4. In outline: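 HTRF read-out of FAM-peptide (1 µM) phosphorylation after anti-phosphotyrosine antibody addition and EDTA quench. Reaction: 5.0 nM wtKIT, 400 µM ATP, 10 mM Mn2+, HEPES pH 7.5, 1% DMSO, 3 h, 25 °C; optional enzyme-compound preincubation; enzyme level set for 10-20% conversion.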

T1 sequence (P10721 26-976): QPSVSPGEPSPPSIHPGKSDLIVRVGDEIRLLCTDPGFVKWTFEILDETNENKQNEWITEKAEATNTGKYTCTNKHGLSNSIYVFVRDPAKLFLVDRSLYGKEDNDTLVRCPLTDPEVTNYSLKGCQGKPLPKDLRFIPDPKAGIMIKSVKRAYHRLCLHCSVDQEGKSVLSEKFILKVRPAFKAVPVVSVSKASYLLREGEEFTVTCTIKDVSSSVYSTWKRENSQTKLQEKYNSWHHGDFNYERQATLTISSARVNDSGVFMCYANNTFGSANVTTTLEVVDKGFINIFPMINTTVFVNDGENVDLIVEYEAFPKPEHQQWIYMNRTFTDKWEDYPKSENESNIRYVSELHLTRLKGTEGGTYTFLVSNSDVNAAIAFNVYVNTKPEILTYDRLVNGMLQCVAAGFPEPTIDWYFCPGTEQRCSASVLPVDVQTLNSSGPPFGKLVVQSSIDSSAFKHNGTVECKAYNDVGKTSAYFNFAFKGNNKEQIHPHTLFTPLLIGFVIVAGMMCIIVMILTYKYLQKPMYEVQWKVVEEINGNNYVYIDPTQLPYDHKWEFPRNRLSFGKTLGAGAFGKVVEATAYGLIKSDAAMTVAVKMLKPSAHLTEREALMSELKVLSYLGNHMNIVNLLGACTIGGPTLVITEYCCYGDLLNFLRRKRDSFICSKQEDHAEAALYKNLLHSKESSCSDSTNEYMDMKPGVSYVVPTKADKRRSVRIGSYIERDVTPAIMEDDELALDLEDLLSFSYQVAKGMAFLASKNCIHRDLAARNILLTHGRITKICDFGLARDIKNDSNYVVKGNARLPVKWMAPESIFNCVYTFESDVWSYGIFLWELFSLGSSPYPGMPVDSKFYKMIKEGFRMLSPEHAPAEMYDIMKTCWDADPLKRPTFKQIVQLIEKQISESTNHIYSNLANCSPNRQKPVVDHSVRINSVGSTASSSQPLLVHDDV

For the molecule `COc1ccn2c(C(=O)Nc3cc(-c4noc(-c5ccc(C)cn5)n4)ccc3C)cnc2c1` [Compound I-556, 7-methoxy-N-(2-methyl-5-(5-(5-methylpyridin-2-yl)-1,2,4-oxadiazol-3-yl)phenyl)imidazo[1,2-a]pyridine-3-carboxamide], the IC50 was at most 50 nM.

In the case of `Cc1ccn2c(C(=O)Nc3cc(-c4noc(CCC(C)(O)C(F)(F)F)n4)ccc3C)cnc2c1` (stereo not shown) [Compound I-752, 7-methyl-N-(2-methyl-5-(5-(4,4,4-trifluoro-3-hydroxy-3-methylbutyl)-1,2,4-oxadiazol-3-yl)phenyl)imidazo[1,2-a]pyridine-3-carboxamide], the IC50 is at most 50 nM.

On to `Cc1ccc(-c2noc([C@H]3C[C@@H]3F)n2)cc1NC(=O)c1cnc2cc3c(cn12)C(C)OC3` (single isomer, unassigned) [Compound I-483, (4R*)—N-[5-[5-[(1R,2S)-2-fluorocyclopropyl]-1,2,4-oxadiazol-3-yl]-2-methyl-phenyl]-4-methyl-5-oxa-1,10-diazatricyclo[7.3.0.0^3,7]dodeca-2,7,9,11-tetraene-12-carboxamide], for which the IC50 was at most 50 nM.

On to `Cc1ccc(-c2noc([C@H]3C[C@@H]3F)n2)cc1NC(=O)c1cnc2cc([C@@H]3C[C@H]3CO)ccn12` [Compound I-481, N-[5-[5-[(1R,2S)-2-fluorocyclopropyl]-1,2,4-oxadiazol-3-yl]-2-methyl-phenyl]-7-[(1R,2R)-2 (hydroxymethyl)cyclopropyl]imidazo[1,2-a]pyridine-3-carboxamide], for which the IC50 is at most 50 nM.

Take `CNC(C)COCc1ccn2c(C(=O)Nc3cc(-c4noc(CC(O)C(F)F)n4)ccc3C)cnc2c1` (stereo not shown) [Compound I-598]: the concentration for half-maximal inhibition (IC50) fell in the range of 50 to 500 nM.

Regarding `CCC(O)Cc1nc(-c2ccc(C)c(NC(=O)c3cnc4ccccn34)c2)no1` (stereo not shown) [Compound I-526], the IC50 was at most 50 nM.

Take `Cc1nc(-c2ccc(C)c(NC(=O)c3cnc4ccc(-c5cscn5)cn34)c2)no1` [Compound I-542, N-(2-methyl-5-(5-methyl-1,2,4-oxadiazol-3-yl)phenyl)-6-(thiazol-4-yl)imidazo[1,2-a]pyridine-3-carboxamide]: the IC50 is at most 50 nM.

With `Cc1ccc(-c2noc(C[C@H](C)O)n2)cc1NC(=O)c1cnc2cc(Cl)ccn12` [Compound I-602], the IC50 was at most 50 nM.

With `CCc1nc(-c2ccc(C)c(NC(=O)c3cnc4cc(COCCO)ccn34)c2)no1` [Compound I-754], the IC50 is at most 50 nM.

On to `Cc1ccc(-c2ncon2)cc1NC(=O)c1cnc2cc(N3CCCCC3)ccn12` [Compound I-712], for which the IC50 lay within 50 to 500 nM.

As for `Cc1ccc(-c2noc(N3CC(F)(F)C3)n2)cc1NC(=O)c1cnn2cc(F)ccc12` [Compound I-626], the IC50 is 50 to 500 nM.

With `Cc1nc(-c2ccc(C)c(NC(=O)c3cnc4cc(OCCCN5CCCC5)ccn34)c2)no1` [Compound I-629, N-(2-methyl-5-(5-methyl-1,2,4-oxadiazol-3-yl)phenyl)-7-(3-(pyrrolidin-1-yl)propoxy)imidazo[1,2-a]pyridine-3-carboxamide], the IC50 is at most 50 nM.

For the molecule `Cc1ccc(-c2noc(C3CC(F)(F)C3)n2)cc1NC(=O)c1cnn2ccccc12` [Compound I-518, methyl N-(5-(5-(3,3-difluorocyclobutyl)-1,2,4-oxadiazol-3-yl)-2-methylphenyl)pyrazolo[1,5-a]pyridine-3-carboxamide], the IC50 was at most 50 nM.

With `Cc1ccc(-c2noc([C@H]3C[C@@H]3F)n2)cc1NC(=O)c1cnc2cc(C(C)(C)O)ccn12` [Compound I-456], the IC50 was at most 50 nM.

Take `Cc1ccc(-c2noc(C3CC(F)(F)C3)n2)cc1NC(=O)c1cnc2cc(COCC(C)(C)O)ccn12` [Compound I-521, N-(5-(5-(3,3-difluorocyclobutyl)-1,2,4-oxadiazol-3-yl)-2-methylphenyl)-7-((2-hydroxy-2-methylpropoxy)methyl)imidazo[1,2-a]pyridine-3-carboxamide]: the IC50 was at most 50 nM.

Regarding `Cc1ccc(-c2noc(C3CC(O)(C(F)F)C3)n2)cc1NC(=O)c1cnc2ccccn12` (stereo not shown) [Compound I-538], the IC50 was in the range of 50 to 500 nM.

For `COC[C@@H](O)c1nc(-c2ccc(C)c(NC(=O)c3cnc4cc(C)ccn34)c2)no1` [Compound I-607], the IC50 was 500 to 5000 nM.

`Cc1nc(-c2ccc(C)c(NC(=O)c3cnc4cc(-c5ccn(C)n5)ccn34)c2)no1` [Compound I-530, 7-(1-methyl-1H-pyrazol-3-yl)-N-(2-methyl-5-(5-methyl-1,2,4-oxadiazol-3-yl)phenyl)imidazo[1,2-a]pyridine-3-carboxamide]: the 50% inhibitory concentration (IC50) was at most 50 nM.

For the molecule `Cc1ccc(-c2noc([C@H]3C[C@@H]3F)n2)cc1NC(=O)c1cnc2cc(COCC(C)O)ccn12` (single isomer, unassigned) [Compound I-468, N-[5-[5-[(1R,2S)-2-fluorocyclopropyl]-1,2,4-oxadiazol-3-yl]-2-methyl-phenyl]-7-[[(2R*)-2-hydroxypropoxy]methyl]imidazo[1,2-a]pyridine-3-carboxamide], the IC50 is at most 50 nM.

As for `Cc1ccc(-c2noc([C@H]3C[C@@H]3F)n2)cc1NC(=O)c1cnn2cc(CCOCCO)ccc12` [Compound I-503, N-(5-(5-((1R,2S)-2-fluorocyclopropyl)-1,2,4-oxadiazol-3-yl)-2-methylphenyl)-6-(2-(2-hydroxyethoxy)ethyl)pyrazolo[1,5-a]pyridine-3-carboxamide], the IC50 was at most 50 nM.

`Cc1ccc(-c2noc([C@H]3C[C@@H]3F)n2)cc1NC(=O)c1cnc2cc(COCC3(O)COC3)ccn12` [Compound I-490, N-(5-(5-((1R,2S)-2-fluorocyclopropyl)-1,2,4-oxadiazol-3-yl)-2-methylphenyl)-7-(((3-hydroxyoxetan-3-yl)methoxy)methyl)imidazo[1,2-a]pyridine-3-carboxamide]: the IC50 is at most 50 nM.

As to `COC(C)(C)COCc1ccn2c(C(=O)Nc3cc(-c4noc([C@H]5C[C@@H]5F)n4)ccc3C)cnc2c1` [Compound I-465], the IC50 is 50 to 500 nM.

Turning to `Cc1ccc(-c2noc(CC3COC3)n2)cc1NC(=O)c1cnc2cc(Cl)ccn12` [Compound I-753, 7-Chloro-N-[2-methyl-5-[5-(oxetan-3-ylmethyl)-1,2,4-oxadiazol-3-yl]phenyl]imidazo[1,2-a]pyridine-3-carboxamide], the IC50 is at most 50 nM.

With `Cc1ccc(-c2noc([C@H]3C[C@@H]3F)n2)cc1NC(=O)c1cnc2cc(C/C=C/OCCO)ccn12` [Compound I-506, N-[5-[5-[(1R,2S)-2-fluorocyclopropyl]-1,2,4-oxadiazol-3-yl]-2-methyl-phenyl]-7-[(E)-3-(2-hydroxyethoxy)allyl]imidazo[1,2-a]pyridine-3-carboxamide], the IC50 was at most 50 nM.

Regarding `Cc1ccc(-c2noc(-c3ccccc3)n2)cc1NC(=O)c1cnc2cc(COCCO)ccn12` [Compound I-719], the IC50 is at most 50 nM.

For `COCc1ccn2c(C(=O)Nc3cc(-c4noc(-c5cccnc5)n4)ccc3C)cnc2c1` [Compound I-732], the IC50 lay in the range of 50 to 500 nM.

For the molecule `COCC(O)Cc1nc(-c2ccc(C)c(NC(=O)c3cnc4ccccn34)c2)no1` (stereo not shown) [Compound I-528], the IC50 was 50 to 500 nM.

For the molecule `Cc1nc(-c2ccc(C)c(NC(=O)c3cnn4cc(-c5cscn5)ccc34)c2)no1` [Compound I-559, N-(2-methyl-5-(5-methyl-1,2,4-oxadiazol-3-yl)phenyl)-6-(thiazol-4-yl)pyrazolo[1,5-a]pyridine-3-carboxamide], the IC50 is at most 50 nM.

As for `Cc1nc(-c2ccc(C)c(NC(=O)c3cnc4cc(OC5CCOC5)ccn34)c2)no1` (single isomer, unassigned) [Compound I-748], the IC50 fell in the range of 50 to 500 nM.

As for `CCNc1ccn2c(C(=O)Nc3cc(-c4ncon4)ccc3C)cnc2c1` [Compound I-706], the IC50 was at most 50 nM.

Regarding `Cc1ccc(-c2ncon2)cc1NC(=O)c1cnn2cc(-c3ccn(C)n3)ccc12` [Compound I-729], the IC50 is at most 50 nM.

In the case of `Cc1ccc(-c2ncon2)cc1NC(=O)c1cnc2cc(COCC(C)(C)O)ccn12` [Compound I-641, 7-((2-hydroxy-2-methylpropoxy)methyl)-N-(2-methyl-5-(1,2,4-oxadiazol-3-yl)phenyl)imidazo[1,2-a]pyridine-3-carboxamide], the IC50 lay within 500 to 5000 nM.

Consider `Cc1nc(-c2ccc(C)c(NC(=O)c3cnc4ccc(-c5ccn(C)n5)cn34)c2)no1` [Compound I-532, 6-(1-methyl-1H-pyrazol-3-yl)-N-(2-methyl-5-(5-methyl-1,2,4-oxadiazol-3-yl)phenyl)imidazo[1,2-a]pyridine-3-carboxamide], for which the IC50 is at most 50 nM.

As to `Cc1ccn2c(C(=O)Nc3cc(-c4noc(C5CCCCC5)n4)ccc3C)cnc2c1` [Compound I-539], the IC50 was at most 50 nM.

As to `COc1ccn2c(C(=O)Nc3cc(-c4noc(C(C)O)n4)ccc3C)cnc2c1` (stereo not shown) [Compound I-742], the IC50 fell in the range of 50 to 500 nM.

As to `Cc1ccn2c(C(=O)Nc3cc(-c4noc(-c5ccccc5)n4)ccc3C)cnc2c1` [Compound I-736], the IC50 is at most 50 nM.

Consider `Cc1ccc(-c2ncon2)cc1NC(=O)c1cnn2ccccc12` [Compound I-640, N-(2-methyl-5-(1,2,4-oxadiazol-3-yl)phenyl)pyrazolo[1,5-a]pyridine-3-carboxamide], for which the IC50 lay within 50 to 500 nM.

With `Cc1ccc(-c2noc([C@H]3C[C@@H]3F)n2)cc1NC(=O)c1cnn2ccc(OC(C)C)cc12` [Compound I-493, N-(5-(5-((1R,2S)-2-fluorocyclopropyl)-1,2,4-oxadiazol-3-yl)-2-methylphenyl)-5-isopropoxypyrazolo[1,5-a]pyridine-3-carboxamide], the IC50 was at most 50 nM.

Regarding `Cc1ccc(-c2noc(C[C@H](O)C(F)F)n2)cc1NC(=O)c1cnc2cc(COCc3nc[nH]n3)ccn12` [Compound I-587, N-[5-[5-[(2S)-3,3-difluoro-2-hydroxy-propyl]-1,2,4-oxadiazol-3-yl]-2-methyl-phenyl]-7-(1H-1,2,4-triazol-3-ylmethoxymethyl)imidazo[1,2-a]pyridine-3-carboxamide], the concentration for half-maximal inhibition (IC50) is at most 50 nM.

Regarding `Cc1ccn2c(C(=O)Nc3cc(-c4noc(-c5ccnnc5)n4)ccc3C)cnc2c1` [Compound I-546], the IC50 lay in the range of 50 to 500 nM.
